ChEMBL document CHEMBL2021793, “Synthesis, biological evaluation and structure-activity relationships of glycyrrhetinic acid derivatives as novel anti-hepatitis B virus agents” (Bioorg Med Chem Lett, 2012)

Tests used:
[1] = Cytotoxicity against human HepG2(2.2.15) cells; assay type: cell-based
[2] = Selectivity index, ratio of CC50 for human HepG2(2.2.15) cells to IC50 for HBV by viral DNA replication detection assay; assay type: functional
[3] = tested on: Hepatitis B virus; test: Antiviral activity against Hepatitis B virus infected in human HepG2(2.2.15) cells assessed as reduction in hepatitis B surface antigen release; assay type: functional, organism-based
[4] = tested on: Hepatitis B virus; test: Antiviral activity against Hepatitis B virus infected in human HepG2(2.2.15) cells assessed as reduction in hepatitis B e-antigen release; assay type: functional, organism-based
[5] = tested on: Hepatitis B virus; test: Antiviral activity against Hepatitis B virus infected in human HepG2(2.2.15) cells assessed as reduction in viral DNA replication; assay type: functional, organism-based
[6] = Selectivity index, ratio of CC50 for human HepG2(2.2.15) cells to IC50 for HBV by hepatitis B surface antigen release detection assay; assay type: functional

| IC50 [3] | IC50 [4] | IC50 [5] | SMILES | CC50 [1] | Ratio CC50/IC50 [2] | Ratio CC50/IC50 [6] |
| --- | --- | --- | --- | --- | --- | --- |
| > 2010 µM | > 2010 µM | 153 µM | CC1(C)[C@@H](O)CC[C@]2(C)[C@H]3C(=O)C=C4[C@@H]5C[C@@](C)(C(=O)OCc6ccccc6)CC[C@]5(C)CC[C@@]4(C)[C@]3(C)CC[C@@H]12 | 2010 µM | 13.1 |  |
| 588 µM | > 1310 µM | 19.5 µM | CC1(C)[C@@H](O)CC[C@]2(C)[C@H]3C(=O)C=C4[C@@H]5C[C@@](C)(C(=O)OCc6cccc(F)c6)CC[C@]5(C)CC[C@@]4(C)[C@]3(C)CC[C@@H]12 | > 1310 µM | >67.2 | >2.2 |
| > 1850 µM | > 1850 µM | 529 µM | CC1(C)[C@@H](O)CC[C@]2(C)[C@H]3C(=O)C=C4[C@@H]5C[C@@](C)(C(=O)OCc6cccc(Cl)c6)CC[C@]5(C)CC[C@@]4(C)[C@]3(C)CC[C@@H]12 | > 1850 µM | >3.5 |  |
| > 986 µM | > 986 µM | 5.71 µM | CC1(C)[C@@H](O)CC[C@]2(C)[C@H]3C(=O)C=C4[C@@H]5C[C@@](C)(C(=O)OCc6ccc(I)cc6)CC[C@]5(C)CC[C@@]4(C)[C@]3(C)CC[C@@H]12 | > 986 µM | >172.6 |  |
| > 805 µM | > 805 µM | 18.1 µM | CC1(C)[C@@H](O)CC[C@]2(C)[C@H]3C(=O)C=C4[C@@H]5C[C@@](C)(C(=O)OCc6ccc(Br)cc6F)CC[C@]5(C)CC[C@@]4(C)[C@]3(C)CC[C@@H]12 | > 1430 µM | >79 |  |
| > 1370 µM | > 1370 µM | 5.36 µM | CC1(C)[C@@H](O)CC[C@]2(C)[C@H]3C(=O)C=C4[C@@H]5C[C@@](C)(C(=O)OCc6ccc(C(F)(F)F)cc6)CC[C@]5(C)CC[C@@]4(C)[C@]3(C)CC[C@@H]12 | > 1370 µM | >255.9 |  |
| 54.4 µM | > 1210 µM | 21.2 µM | CC1(C)[C@@H](O)CC[C@]2(C)[C@H]3C(=O)C=C4[C@@H]5C[C@@](C)(C(=O)OCc6ccc(S(C)(=O)=O)cc6)CC[C@]5(C)CC[C@@]4(C)[C@]3(C)CC[C@@H]12 | 1030 µM | 48.3 | 18.8 |
| 606 µM | > 1330 µM | 8.9 µM | CC1(C)[C@@H](O)CC[C@]2(C)[C@H]3C(=O)C=C4[C@@H]5C[C@@](C)(C(=O)OCc6ccc([N+](=O)[O-])cc6)CC[C@]5(C)CC[C@@]4(C)[C@]3(C)CC[C@@H]12 | > 1330 µM | >149.2 | >2.2 |
| > 1130 µM | > 1130 µM | 160 µM | CC1(C)[C@@H](O)CC[C@]2(C)[C@H]3C(=O)C=C4[C@@H]5C[C@@](C)(C(=O)OCc6ccc(OC(F)(F)F)cc6)CC[C@]5(C)CC[C@@]4(C)[C@]3(C)CC[C@@H]12 | > 1130 µM | >7.1 |  |
| > 1540 µM | > 1540 µM | 195 µM | CC1(C)[C@@H](O)CC[C@]2(C)[C@H]3C(=O)C=C4[C@@H]5C[C@@](C)(C(=O)OCc6ccccc6C#N)CC[C@]5(C)CC[C@@]4(C)[C@]3(C)CC[C@@H]12 | > 1540 µM | >7.9 |  |
| > 1700 µM | > 1700 µM | 15.3 µM | CC1(C)[C@@H](O)CC[C@]2(C)[C@H]3C(=O)C=C4[C@@H]5C[C@@](C)(C(=O)OCc6cccc7cccnc67)CC[C@]5(C)CC[C@@]4(C)[C@]3(C)CC[C@@H]12 | > 1700 µM | >111 |  |
| 1070 µM | > 1360 µM | 171 µM | CC1(C)[C@@H](O)CC[C@]2(C)[C@H]3C(=O)C=C4[C@@H]5C[C@@](C)(C(=O)OCc6cccnc6)CC[C@]5(C)CC[C@@]4(C)[C@]3(C)CC[C@@H]12 | 321 µM | 1.9 |  |
| 927 µM | > 2060 µM | 23.7 µM | CC1(C)[C@@H](O)CC[C@]2(C)[C@H]3C(=O)C=C4[C@@H]5C[C@@](C)(C(=O)OCc6ccc(-n7cccn7)cc6)CC[C@]5(C)CC[C@@]4(C)[C@]3(C)CC[C@@H]12 | 1990 µM | 83.6 | 2.1 |
| 36.3 µM | > 1480 µM | 9.08 µM | Cc1nc(COC(=O)[C@@]2(C)CC[C@]3(C)CC[C@]4(C)C(=CC(=O)[C@@H]5[C@@]6(C)CC[C@H](O)C(C)(C)[C@@H]6CC[C@]54C)[C@@H]3C2)cs1 | 37.2 µM | 4.1 | 1 |
| 347 µM | > 1110 µM | 64.9 µM | CC1(C)[C@@H](O)CC[C@]2(C)[C@H]3CC=C4[C@@H]5C[C@@](C)(C(=O)OCC(N)=O)CC[C@]5(C)CC[C@@]4(C)[C@]3(C)CC[C@@H]12 | 472 µM | 7.3 | 1.4 |
| 43.3 µM | > 1810 µM | 18.4 µM | CC1(C)[C@@H](O)CC[C@]2(C)[C@H]3C[C@H]4O[C@]45[C@@H]4C[C@@](C)(C(=O)O)CC[C@]4(C)CC[C@@]5(C)[C@]3(C)CC[C@@H]12 | 35.7 µM | 1.9 |  |
| > 1390 µM | > 1390 µM | 28.6 µM | CC1(C)[C@@H](O)CC[C@]2(C)[C@H]3C(=O)C=C4[C@@H]5C[C@@](C)(C(=O)OCCCBr)CC[C@]5(C)CC[C@@]4(C)[C@]3(C)CC[C@@H]12 | 160 µM | 5.6 |  |
| 57.4 µM | > 1180 µM | 14.2 µM | CC1(C)[C@@H](O)CC[C@]2(C)[C@H]3C(=O)C=C4[C@@H]5C[C@@](C)(C(=O)OCCOc6ccccc6)CC[C@]5(C)CC[C@@]4(C)[C@]3(C)CC[C@@H]12 | 101 µM | 7.1 | 1.8 |
| 835 µM | > 1720 µM | 198 µM | CCOCCOC(=O)[C@@]1(C)CC[C@]2(C)CC[C@]3(C)C(=CC(=O)[C@@H]4[C@@]5(C)CC[C@H](O)C(C)(C)[C@@H]5CC[C@]43C)[C@@H]2C1 | 541 µM | 2.7 |  |
| 40 µM | > 1120 µM | 28.8 µM | CC1(C)[C@@H](O)CC[C@]2(C)[C@H]3C(=O)C=C4[C@@H]5C[C@@](C)(C(=O)OCC(N)=O)CC[C@]5(C)CC[C@@]4(C)[C@]3(C)CC[C@@H]12 | 55.3 µM | 1.9 | 1.4 |
| 1010 µM | > 1920 µM | 298 µM | CC1(C)[C@@H](O)CC[C@]2(C)[C@H]3C(=O)C=C4[C@@H]5C[C@@](C)(C(=O)OCCO)CC[C@]5(C)CC[C@@]4(C)[C@]3(C)CC[C@@H]12 | 380 µM | 1.3 |  |
| 129 µM | > 1250 µM | 47.7 µM | CC1(C)[C@@H](O)CC[C@]2(C)[C@H]3C(=O)C=C4[C@@H]5C[C@@](C)(C(=O)OCCCCCCO)CC[C@]5(C)CC[C@@]4(C)[C@]3(C)CC[C@@H]12 | 67.3 µM | 1.4 |  |
| 145 µM | > 1390 µM | 13.2 µM | CC1(C)[C@@H](O)CC[C@]2(C)[C@H]3C(=O)C=C4[C@@H]5C[C@@](C)(C(=O)OCCCCCCCCO)CC[C@]5(C)CC[C@@]4(C)[C@]3(C)CC[C@@H]12 | 157 µM | 11.9 | 1.1 |
| > 1200 µM | > 1200 µM | 139 µM | CCOC(=O)COC(=O)[C@@]1(C)CC[C@]2(C)CC[C@]3(C)C(=CC(=O)[C@@H]4[C@@]5(C)CC[C@H](O)C(C)(C)[C@@H]5CC[C@]43C)[C@@H]2C1 | > 1200 µM | >8.7 |  |
| 38.2 µM | 56.8 µM | 30.9 µM | CCOC(=O)CCCOC(=O)[C@@]1(C)CC[C@]2(C)CC[C@]3(C)C(=CC(=O)[C@@H]4[C@@]5(C)CC[C@H](O)C(C)(C)[C@@H]5CC[C@]43C)[C@@H]2C1 | 53.3 µM | 1.7 | 1.4 |
| 209 µM | > 1750 µM | 47.2 µM | CCOC(=O)CCCCCOC(=O)[C@@]1(C)CC[C@]2(C)CC[C@]3(C)C(=CC(=O)[C@@H]4[C@@]5(C)CC[C@H](O)C(C)(C)[C@@H]5CC[C@]43C)[C@@H]2C1 | 54.7 µM | 1.2 |  |
| 20.9 µM | 130 µM | 39.3 µM | CC1(C)[C@@H](O)CC[C@]2(C)[C@H]3C(=O)C=C4[C@@H]5C[C@@](C)(C(=O)O)CC[C@]5(C)CC[C@@]4(C)[C@]3(C)CC[C@@H]12 [ENOXOLONE] | 55.1 µM | 1.4 | 2.6 |

| SMILES | IC50 [3] | IC50 [4] | IC50 [5] | CC50 [1] | Ratio CC50/IC50 [2] | Ratio CC50/IC50 [6] |
| --- | --- | --- | --- | --- | --- | --- |
| CC1(C)[C@@H](O)CC[C@]2(C)[C@H]3CC=C4[C@@H]5C[C@@](C)(C(=O)O)CC[C@]5(C)CC[C@@]4(C)[C@]3(C)CC[C@@H]12 | 48.7 µM | > 1370 µM | 47 µM | 162 µM | 3.4 | 3.3 |
| CC1(C)C(=O)CC[C@]2(C)[C@H]3C(=O)C=C4[C@@H]5C[C@@](C)(C(=O)O)CC[C@]5(C)CC[C@@]4(C)[C@]3(C)CC[C@@H]12 | 433 µM | > 467 µM | 189 µM | 467 µM | 2.5 | 1.1 |
| CC(=O)O[C@H]1CC[C@]2(C)[C@H]3C(=O)C=C4[C@@H]5C[C@@](C)(C(=O)O)CC[C@]5(C)CC[C@@]4(C)[C@]3(C)CC[C@H]2C1(C)C [ACETOXOLONE] | 1000 µM | > 518 µM | 121 µM | 518 µM | 4.3 |  |
